{"source": "patent US20050059626A1", "about": "“Methods of preventing and treating viral infections using immunomodulatory polynucleotide sequences” (priority 2000, published 2005)", "test_system": "RSV A2", "experiment": "RSV lung titer in cotton rats after non-local (IP or SC) administration", "type": "in vivo, cotton rat (Sigmoden hispidis)", "details": "for RSV titer (log10/g lung) Mean / RSV titer (log10/g lung) in cotton rat no. 1 / RSV titer (log10/g lung) in cotton rat no. 2 / RSV titer (log10/g lung) in cotton rat no. 3 / RSV titer (log10/g lung) in cotton rat no. 4 / RSV titer (log10/g lung) in CR no. 1 / RSV titer (log10/g lung) in CR no. 2 / RSV titer (log10/g lung) in CR no. 3 / RSV titer (log10/g lung) in CR no. 4: Non-ISS = SEQ ID NO:10", "protocol": "Cotton rats, 50-100 g and 4-12 weeks old (Sigmoden hispidis) of either sex were used in these studies. All of the animals were descendants of two pair of cotton rats obtained in 1984 from the Small Animal Section of the Veterinary Research Branch, Division of Research Services, National Institutes of Health.\nRSV strain A2 was purchased from the ATCC (ATCC VR26). Working stocks of this virus were prepared as described in detail by Wyde et al. (1995) Pediatr. Res. 38:543-550. ISS sequence tested for RSV experiments was 5′-[…]-3′ (SEQ ID NO:1) (phosphorothioate). Control, non-ISS sequences used were 5′-[…]-3′ (SEQ ID NO:9) (phosphorothioate) and 5′-[…]-3′ (SEQ ID NO:10) (phosphorothioate), as well as PBS.\nRSV levels in virus pools and lung lavage fluids (L.F.) were determined using sterile 96-well, flat bottom tissue culture plates (Falcon 3072), serial 3-fold dilutions and 2% FCS-MEM as described in detail previously (Wyde et al., 1995). […] The amount of virus in virus pools was expressed as a median tissue culture infectious doses (TCID50/ml, log10). Titers of virus in L.F. were expressed as TCID50/g lung tissue (log10). The minimum detectable virus concentration in these assays was 1.3 log10 TCID50/ml (virus pools) or 1.6 log10 TCID50/g lung.\nTwenty cotton rats were divided into 5 groups of 4 animals. Administered to these animals, either intraperitoneally (IP) or subcutaneously (SC), was PBS, immunostimulatory sequence (ISS) 5′-[…]-3′ (SEQ ID NO:1) or non-ISS sequence 5′-[…]-3′ (SEQ ID NO:10), each sequence at 150 μg/injection. On Day 0 each of these animals was […] IN with 100 TCID50 of RSV A2. Four days later each cotton rat was sacrificed. The lungs of each animal were removed, lavaged and assessed for RSV.", "key": {"[1]": {"details": "150 μg IP Day −1, RSV Day 0, lungs Day 4"}, "[2]": {"details": "150 μg IP Day −3, RSV Day 0, lungs Day 4"}, "[3]": {"details": "150 μg SC Day −1, RSV Day 0, lungs Day 4"}, "[4]": {"details": "150 μg SC Day −3, RSV Day 0, lungs Day 4"}}, "data": [{"substance": "5′-TGACTGTGAACGTTCGAGATGA-3′ [SEQ ID NO: 1]", "values": [{"measurement": "RSV titer (log10/g lung) Mean", "setting": "[1]", "result": 3.6, "unit": "log10/g lung"}, {"measurement": "RSV titer (log10/g lung) in cotton rat no. 1", "setting": "[1]", "result": 3.8, "unit": "log10/g lung"}, {"measurement": "RSV titer (log10/g lung) in cotton rat no. 2", "setting": "[1]", "result": 3.3, "unit": "log10/g lung"}, {"measurement": "RSV titer (log10/g lung) in cotton rat no. 3", "setting": "[1]", "result": 3.3, "unit": "log10/g lung"}, {"measurement": "RSV titer (log10/g lung) in cotton rat no. 4", "setting": "[1]", "result": 3.8, "unit": "log10/g lung"}, {"measurement": "RSV titer (log10/g lung) Mean", "setting": "[2]", "result": 3.7, "unit": "log10/g lung"}, {"measurement": "RSV titer (log10/g lung) in cotton rat no. 1", "setting": "[2]", "result": 3.3, "unit": "log10/g lung"}, {"measurement": "RSV titer (log10/g lung) in cotton rat no. 2", "setting": "[2]", "result": 3.8, "unit": "log10/g lung"}, {"measurement": "RSV titer (log10/g lung) in cotton rat no. 3", "setting": "[2]", "result": 3.8, "unit": "log10/g lung"}, {"measurement": "RSV titer (log10/g lung) in cotton rat no. 4", "setting": "[2]", "result": 3.8, "unit": "log10/g lung"}, {"measurement": "RSV titer (log10/g lung) Mean", "setting": "[3]", "result": 4.0, "unit": "log10/g lung"}, {"measurement": "RSV titer (log10/g lung) in CR no. 1", "setting": "[3]", "result": 4, "unit": "log10/g lung"}, {"measurement": "RSV titer (log10/g lung) in CR no. 2", "setting": "[3]", "result": 4.5, "unit": "log10/g lung"}, {"measurement": "RSV titer (log10/g lung) in CR no. 3", "setting": "[3]", "result": 3.5, "unit": "log10/g lung"}, {"measurement": "RSV titer (log10/g lung) in CR no. 4", "setting": "[3]", "result": 4, "unit": "log10/g lung"}, {"measurement": "RSV titer (log10/g lung) Mean", "setting": "[4]", "result": 4.1, "unit": "log10/g lung"}, {"measurement": "RSV titer (log10/g lung) in CR no. 1", "setting": "[4]", "result": 4, "unit": "log10/g lung"}, {"measurement": "RSV titer (log10/g lung) in CR no. 2", "setting": "[4]", "result": 4.5, "unit": "log10/g lung"}, {"measurement": "RSV titer (log10/g lung) in CR no. 3", "setting": "[4]", "result": 4, "unit": "log10/g lung"}, {"measurement": "RSV titer (log10/g lung) in CR no. 4", "setting": "[4]", "result": 4, "unit": "log10/g lung"}, {"measurement": "Reduction in RSV viral titers compared to PBS", "setting": "IP and SC administration of 150 μg", "result": "failed to cause a statistically significant reduction in viral titers"}]}]}
